From patent US5510260A, “Prolactin secreting cell line and method of obtaining the same” (Unversity of Virginia Patent Foundation, priority 1993, dated 1996) come the findings set out here.

No end group written: not given here.

Assay [1] concerns MMQ cells. The assay is described as follows: cAMP levels in the MMQ cells. The format is cell-based, rat. To be noted: for effect on the dopaminergic inhibition of stimulated cAMP: pertussis toxin as pre-treatment of the cells. The source says: Further studies included measurement of the cAMP levels in the MMQ cells.
(In general: cAMP levels reflect the balance of adenylyl cyclase and phosphodiesterase activity.)

Assay [2] has as its system MMQ cells. The assay is described as follows: 45Ca2+ uptake/efflux in MMQ (floater) cells. The format is cell-based, rat.
Protocol: The MMQ cell line was derived from the pituitary tumor 7315a, a cell line that secretes both prolactin and adrenocorticotrophin (ACTH). The MMQ cell line was obtained by cutting a 7315a tumor into small pieces and then dispersing the pieces into a population of single cells by means of incubating tumor pieces with collagenase. These cells were incubated in tissue culture flasks containing RPMI1640, 5% NHS, 5% FCS. […] The floater cells, which we have designated MMQ, were small granular and irregularly shaped in contrast to the cells that adhered to the flasks.
The subject of assay [3] is MMQ cells.
Description: The non-adherent cell has been designated MMQ.
The clonal cell line MMQ, was derived from the non-adherent cells which secrete only prolactin and no detectable amounts of ACTH or any other pituitary hormones.
Assay [4] has as its system adherent cells of pituitary tumor 7315a.
Description: This isolation involved the use of the solid tumor which was dispersed with collagenase and cultured in RPMI-1640 containing normal horse and calf serum. As previously mentioned, one population is adherent to plastic-ware and the other is non-adherent.

“Vasoactive intestinal peptide (HSDAVFTDNYTRLRKQMAVKKYLNSILN; ends and bridges not checked; UniProt P01282 125-152, looked up) [peptide that increases cellular cAMP levels]”: the “cellular cAMP levels” value in the assay on MMQ cells [1] was “increased”. On the same count and under the same terms, the result for choleratoxin reads “increased”. With `O=C(CCCN1CCC(O)(c2ccc(Cl)cc2)CC1)c1ccc(F)cc1` [Haloperidol], the “effect on the dopaminergic inhibition of stimulated cAMP” value in the assay with MMQ cells [1] was “blocked the dopaminergic effects”. As for `C[C@H](N)C(=O)NCC(=O)N[C@H]1CSSC[C@@H](C(=O)O)NC(=O)[C@H](CO)NC(=O)[C@H]([C@@H](C)O)NC(=O)[C@H](Cc2ccccc2)NC(=O)[C@H]([C@@H](C)O)NC(=O)[C@H](CCCCN)NC(=O)[C@H](Cc2c[nH]c3ccccc23)NC(=O)[C@H](Cc2ccccc2)NC(=O)[C@H](Cc2ccccc2)NC(=O)[C@H](CC(N)=O)NC(=O)[C@H](CCCCN)NC1=O` [Somatostatin], the “attenuation of forskolin and VIP-stimulated cAMP generation” value in the assay on MMQ cells [1] (SRIF 100 nM) was found to be 30%. `NCCc1ccc(O)c(O)c1` [dopamine]: the “effect on maitotoxin-induced efflux of 45Ca2+” value with MMQ cells [2] (addition of dopamine, MMQ cells) is on record as “blocked”. For the same compound, the inhibition at 1 µM with MMQ cells [1] (Rattus norvegicus, 1 μM of dopamine, read-out: attenuation of forskolin and VIP-stimulated cAMP generation) amounted to 50%. The “effect on VIP-, forskolin- and choleratoxin-increased cellular cAMP levels” value with MMQ cells [1] (dopamine 50-1000 nM) is “inhibited each response in a concentration-dependent manner”. The “effect of dopamine on prolactin-release after long-term culture” value with MMQ cells [3] (MMQ cells after more than a year in culture) is “has not been altered”. The “inhibition of maitotoxin-induced prolactin release” value in the assay with MMQ cells [3] (clonal MMQ cells) is reported as 50-80%. In addition, the “effect on prolactin release stimulated by maitotoxin” value in the assay on MMQ cells [3] (non-adherent cells) is “inhibits prolactin release”; in assay [4], “not in the adherent ones”. Turning to pertussis toxin, the “effect on the dopaminergic inhibition of stimulated cAMP” value in the assay on MMQ cells [1] was “blocked the dopaminergic effects”. On to `C=C[C@@]1(C)CC(=O)[C@]2(O)[C@@]3(C)[C@@H](O)CCC(C)(C)[C@@H]3[C@H](O)[C@H](OC(C)=O)[C@@]2(C)O1` [forskolin], for which the “cellular cAMP levels” value in the assay on MMQ cells [1] was “increased”. In the case of `C=CC[C@H](C)[C@H](C)C[C@@H](O)[C@H](O)[C@@H]1CC[C@@]2(C)O[C@@]3(C)C[C@@]4(C)O[C@H]5/C=C\C[C@H]6O[C@H]7C[C@H]8O[C@H]9C[C@@]%10(C)O[C@@](C)([C@@H]%11CC[C@H]%12O[C@@]%13(C)C[C@H]%14O[C@@]%15(C)C[C@H]%16O[C@@]%17(C)C[C@@H](O)[C@H]([C@@H]%18O[C@H]%19[C@H](O)[C@@H](O)[C@H](C[C@H](O)C[C@@H](O)[C@@H]%20O[C@H]%21[C@H](O)[C@@H](O)[C@H]([C@@H]%22O[C@@H]%23[C@H](O)[C@H]%24O[C@H]%25C[C@H]%26O[C@@H](C[C@H](O)[C@@H](O)[C@H]%27O[C@H]%28[C@H](O)[C@H]%29O[C@H]%30C[C@H]%31O[C@H]%32[C@@H](O)[C@@H](O)[C@H]([C@H](C)[C@H](O)[C@H](C)CC[C@H](OS(=O)(=O)O)[C@H](O)[C@H](C)C[C@@H](O)C(=C)/C(C)=C/CO)O[C@@H]%32[C@H](O)C[C@]%31(C)O[C@@H]%30C[C@]%29(C)O[C@@H]%28C[C@H]%27O)[C@H](OS(=O)(=O)O)[C@H](O)[C@@H]%26O[C@@H]%25C[C@@H]%24O[C@H]%23[C@H](O)[C@H]%22O)O[C@H]%21C[C@H]%20O)O[C@H]%19C[C@H]%18O)O[C@@H]%17[C@H](O)[C@]%16(C)O[C@@H]%15CC[C@]%14(C)O[C@@H]%13C[C@@H]%12O%11)[C@H](O)C[C@@H]%10O[C@]9(C)CC[C@]8(C)O[C@]7(C)C[C@@H]6O[C@@H]5C[C@@H]4O[C@@H]3C[C@@H]2O1` [maitotoxin], the “response of MMQ cells to maitotoxin (45Ca2+)” value with MMQ cells [2] (MMQ floater cells loaded with 45Ca2+) is “modest response”.
